Measured values as given in ChEMBL document CHEMBL3045643, “Synthesis, crystal structure, and anticancer properties of cyclic monocarbonyl analogs of curcumin” (Med Chem Res, 2011).
Active and inactive are the calls of the source. The calls are words filed in the database; no cut-off is given here.

Key:
ACHN [1] = test: Cytotoxicity against Homo sapiens (human) ACHN cells by CCK8-based colorimetric analysis; type: functional, cell-based
Calu-1 [2] = test: Cytotoxicity against Homo sapiens (human) Calu1 cells by CCK8-based colorimetric analysis; type: functional, cell-based
[3] = Cytotoxicity against Homo sapiens (human) H460 cells by CCK8-based colorimetric analysis; type: functional, cell-based; conditions: NCI-H460
HCT-116 [4] = test: Cytotoxicity against Homo sapiens (human) HCT116 cells by CCK8-based colorimetric analysis; type: functional, cell-based
PANC-1 [5] = test: Cytotoxicity against Homo sapiens (human) PANC1 cells by CCK8-based colorimetric analysis; type: functional, cell-based
[6] = Cytotoxicity against Homo sapiens (human) […] cells at 0.01 to 30 uM by CCK8-based colorimetric analysis; type: cell-based; conditions: wi-38, 30 µM
HCT-116 [7] = test: Cytotoxicity against Homo sapiens (human) HCT116 cells at 0.01 to 30 uM by CCK8-based colorimetric analysis; type: functional, cell-based
ACHN [8] = test: Cytotoxicity against Homo sapiens (human) ACHN cells at 0.01 to 30 uM by CCK8-based colorimetric analysis; type: functional, cell-based
Calu-1 [9] = test: Cytotoxicity against Homo sapiens (human) Calu1 cells at 0.01 to 30 uM by CCK8-based colorimetric analysis; type: functional, cell-based
NCI-H460 = test: Cytotoxicity against Homo sapiens (human) H460 cells at 0.01 to 30 uM by CCK8-based colorimetric analysis; type: functional, cell-based
PANC-1 [10] = test: Cytotoxicity against Homo sapiens (human) PANC1 cells at 0.01 to 30 uM by CCK8-based colorimetric analysis; type: functional, cell-based

SMILES	IC50 (ACHN [1]) [µM]	IC50 (Calu-1 [2]) [µM]	IC50 [3] [µM]	IC50 (HCT-116 [4]) [µM]	IC50 (PANC-1 [5]) [µM]	Activity [6]	Activity (HCT-116 [7])	Activity (ACHN [8])	Activity (Calu-1 [9])	Activity (NCI-H460)	Activity (PANC-1 [10])
CCOc1ccc(/C=C2\CN(Cc3ccccc3)C/C(=C\c3ccc(OCC)cc3)C2=O)cc1	6.9	8.1	5.5	8.3	7.2	Non-toxic					
COc1ccccc1/C=C1\C(=O)/C(=C\c2ccccc2OC)c2ccccc21						Non-toxic	Active	Active	Active	Active	Active
O=C1/C(=C/c2ccccc2)CN(Cc2ccccc2)C/C1=C\c1ccccc1						Non-toxic	Active	Active	Active	Active	Active
COc1ccc(/C=C2\CN(Cc3ccccc3)C/C(=C\c3ccc(OC)cc3)C2=O)cc1						Non-toxic	Active	Active	Active	Active	Active
O=C1/C(=C/c2cccc(O)c2)CN(Cc2ccccc2)C/C1=C\c1cccc(O)c1						Non-toxic	Active	Active	Active	Active	Active
